Results from ChEMBL document CHEMBL1121769, “5'Chloropuromycin. Inhibition of protein synthesis and antitrypanosomal activity” (J Med Chem, 1981).

System: Mus musculus
Test: Tested for inhibitory activity against CT strain of Trypanosoma rhodesiense infected mice after administration at 106 mg/kg; Not active; call rule not given here
Assay type: functional, organism-based
Design: dose 106 mg/kg

SMILES: COc1ccc(CC(N)C(=O)NC2C(C)OC(n3cnc4c(N(C)C)ncnc43)C2O)cc1 (stereo unspecified)
- IC50: Not Active
